“Also recorded” adds a separate entry of the source. Where two headings read alike, the source gives them in different places.
Biological target: T1, ALDH1B1 (Homo sapiens, UniProt P30837)
T1 sequence (P30837 18-517): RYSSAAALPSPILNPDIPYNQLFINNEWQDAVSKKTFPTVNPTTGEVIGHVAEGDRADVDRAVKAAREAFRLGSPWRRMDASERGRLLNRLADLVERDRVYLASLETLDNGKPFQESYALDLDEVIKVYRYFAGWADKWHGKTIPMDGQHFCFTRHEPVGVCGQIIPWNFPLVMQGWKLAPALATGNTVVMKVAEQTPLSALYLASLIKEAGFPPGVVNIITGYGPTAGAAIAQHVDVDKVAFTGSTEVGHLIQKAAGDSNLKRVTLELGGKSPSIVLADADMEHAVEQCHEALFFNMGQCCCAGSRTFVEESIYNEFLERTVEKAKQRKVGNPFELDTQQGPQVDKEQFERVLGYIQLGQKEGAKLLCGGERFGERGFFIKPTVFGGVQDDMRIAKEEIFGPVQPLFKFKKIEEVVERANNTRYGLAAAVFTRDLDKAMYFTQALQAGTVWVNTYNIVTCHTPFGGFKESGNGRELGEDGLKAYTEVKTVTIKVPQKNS
Assay: ALDH1B1 enzyme kinetics assay (NADH fluorescence, acetaldehyde substrate)
Assay type: biochemical
Parameters: made in house; host or cells: E. coli BL21 (optionally co-expressed with GroEL/GroES)
Details: for ALDH1B1 inhibition / isoform selectivity (in words): enzyme kinetics assays against ALDH isoforms
Description: Cloning, expression, and purification of human recombinant ALDH1A1, ALDH1A3, ALDH2, ALDH3A1, ALDH3A2, ALDH4A1, ALDH5A1 and ALDH7A1 isozymes were conducted as described previously (Chen, C. H. et al. (2015) Proc. Natl. Acad. Sci. U.S.A. 112, 3074-3079). Human ALDH1A2 (Origene, SC109995) and ALDH1B1 (T. Hurley, Indiana University) plasmids were cloned into the pET-15b expression vector (Novagen, 69661-3) containing an N-terminal hexahistidine tag. The mitochondria-targeting sequence of ALDH1B1 was also removed. For protein expression without chaperones, the pET-15b based plasmids were transformed into competent BL21 E. coli cells, which were subsequently grown in 1 L of Luria-Bertani medium containing 100 μg/mL ampicillin at 37° C. Once the OD600 value reached 0.6, the culture was transferred to 16° C. and 0.5 mM isopropyl β-d-1-thiogalactopyranoside was introduced to induce protein expression overnight. The bacteria were then pelleted by centrifugation (3000×g, 4° C. for 30 rain) and harvested. 40 mL BugBuster Master Mix buffer (MilliporeSigrna) containing a protease inhibitor cocktail (cOmplete; Roche) was added, and the cells were lysed by mechanically rolling the suspension at room temperature for 25 min. The lysate was centrifuged (16000×g, 4° C. for 30 min), and the soluble fraction was collected and mixed with 2 mL of Ni-NTA Superflow resin (Qiagen). After the mixture was avowed to rock at 4° C. for 1 h, it was used to create a 10-mL gravity column, which was sequentially treated with 40 mL of wash buffer 1 (20 mM sodium phosphate, 500 mM NaCl, 1 mM DTT, 20 mM imidazole, 5% glycerol, pH 7.4) and 25 mL of wash buffer 2 (20 mM sodium phosphate, 500 mM NaCl, 1 mM DTT, 40 mM imidazole, 5% glycerol, pH 7.4). The hexahistidine-tagged protein was then recovered by treated the column with 5 mL elution buffer (20 mM sodium phosphate, 500 mM NaCl, 1 mM DTT, 400 mM imidazole, 5% glycerol, pH 7.4) and collecting 500-μL fractions. The protein concentration for each fraction was measured (500 μL elution volume was collected as one fraction and was immediately mixed with 500 μL glycerol. The protein concentration for each fraction was measured (600 nm Protein Assay Reagent; Thermo Fisher Scientific), and protein-containing fractions were diluted with an equal volume of glycerol and stored at −80° C. Samples from each step were also collected for SDS-PAGE gel analysis. For ALDH1B1 protein co-expression with chaperones, pET-15b-ALDH1B1 and GroEL/GroES (Addgene, plasmid pBB541) plasmids were co-transformed into competent BL21 E. coli cells, which were subsequently grown in 1 L of Luria-Bertani medium containing 100 μg/mL ampicillin and 50 μg/mL spectinomycin at 37° C. The hexahistidine-tagged ALDH1B1 protein was then expressed and purified as described above.
To evaluate compound activities against ALDH isoforms, reaction mixtures consisting of enzyme assay buffer (100 mM sodium phosphate, 1 mM MgCl2, pH 8.0) and 0.1% DMSO, 1 mM β-mercaptoethanol, 1 mM NAD^+, and the bacterially expressed protein were prepared in white opaque 96-well assay plates (100 μL/well, flat-bottom and non-treated; Corning Costar). 5 μg/mL ALDH enzyme was used for single-dose (1, 10, 50 μM) compound test, and 1 μg/mL ALDH enzyme was used for IC50s determination. Acetaldehyde was then added to each well to achieve an initial substrate concentration of 1 mM, and the resulting enzymatic activity was measured based on NADH fluorescence. The fluorescence signal was read over the course of 10 min on a SpectraMax M2e microplate reader (340-nm excitation and 460-nm emission; Molecular Devices) operated by SoftMax Pro software. Compound activities were normalized to a DMSO control, and dose-response inhibition curves were fitted with four-parameter non-linear regression using Prism software. […]

[1] = 1 μg/mL enzyme, 1 mM acetaldehyde, 1 mM NAD+, read-out: ALDH1B1(in vitro) IC50

| Compound | IC50 [1] [nM] | ALDH1B1 inhibition / isoform selectivity (in words) | further results |
| --- | --- | --- | --- |
| COc1ccccc1-c1ccc(-c2cn(-c3ccccc3OC)c3[n+]2CCCCC3)cc1.[Br-] [Imidazolium 8] | 47 | ALDH1B1-specific inhibitors; also recorded: enhanced specificity for ALDH1B1 in comparison to imidazolium 2 | potency against ALDH1B1 relative to imidazolium 2 (and 8) (dose-response, FIG. 15 panel d): comparable potencies |
| COc1ccccc1C1=CN(c2ccc(-c3ccccc3)cc2)C2=NCCCN12 [STL5-T-0002] | 120 | – | – |
| COc1ccccc1C1=CN(c2ccc(-c3ccccc3)cc2)C2=NCCCCN12 [HPI-273] | 47 | – | – |

Now from value to molecule, other results behind:

| IC50 [1] [nM] | ALDH1B1 inhibition / isoform selectivity (in words) | Compound | further results |
| --- | --- | --- | --- |
| 42 | most potent | COc1ccccc1-n1cc(-c2ccc(-c3ccccc3)cc2)[n+]2c1CCCCC2 [Imidazolium 2] | IC50 (FIG. 2, panel B, read-out: ALDH1B1 IC50 (dose-response experiments, text)): 57 nM; activity against other ALDH1 enzymes relative to ALDH1B1 (dose-response, ALDH1A1, ALDH1A3, ALDH1B1): over an order of magnitude weaker activity against other ALDH1 enzymes; mode of ALDH1B1 inhibition with respect to NAD+ (varying NAD+, Lineweaver-Burk): uncompetitive; mode of ALDH1B1 inhibition with respect to acetaldehyde (varying acetaldehyde, Lineweaver-Burk): non-competitive |
| – | inactive against ALDH1B1 | COc1ccccc1-n1cc(-c2ccccn2)[n+]2c1CCCCC2 [Compound 63] | – |

Source: patent US12570661B2, “Isoform-specific aldehyde dehydrogenase inhibitors” (The Board of Trustees of the Leland Stanford Junior …, priority 2020, dated 2026)
